Measurements: patent publication US20060281720A1, “5-Androstenediol As An Inhibitor of Gliomas” (priority 2005, published 2006)

What was measured:
rat F98 glioma cells [1] = test: Proliferation of rat F98 glioma cells by 3H-TdR incorporation; assay type: cell-based; settings: 3 days; for cell growth / proliferation (3H-TdR incorporation): compared to controls; for dose dependency of antiproliferative effect / proliferation: Example 2, FIG. 2; for dose dependency of antiproliferative effect: 500, 50, 5.0 and 0.5 μm; for proliferation: at 500 μm
Experimental: (§1) αAED, βAED, αAET, and βAET, are commercially available.
(§2) The F98 cells are weakly immunogenic. […] The T9 cell line is tumorgenic and immunogenic.
(§3) During the growth phase, the media was not changed.
(§4) Rat F98 glioma cells and […] glioma cells were grown and cultured as in example 1 above. The cells were cultured in the presence of αAED or βAED in titrated concentrations of 500 μm, 50 μm, 5.0 μm, and 0.5 μm. After 3 days, glioma cell proliferation was measured as described above.
(§5) The cells were cultured in the presence of αAED, βAED, αAET, βAET, or vehicle in titrated concentrations of 400 μm, 200 μm, 100 μm, and 50 μm.

human T98 glioma cells = test: Proliferation of human T98 glioma cells by 3H-TdR incorporation; assay type: cell-based; settings: 3 days; for cell growth / proliferation (3H-TdR incorporation): compared to controls; for dose dependency of antiproliferative effect / proliferation: Example 2, FIG. 2; for dose dependency of antiproliferative effect: 500, 50, 5.0 and 0.5 μm; for proliferation: at 500 μm
Experimental: as §1, §2, §3, §4, §5

rat F98 glioma cells [2] = test: Morphology of rat F98 glioma cells viewed in situ by microscope; assay type: cell-based; settings: Example 3, FIG. 3, 24 hours; for morphological changes compared to vehicle treated cells: 20× magnification
Experimental: Cells were cultured as described in example 1 for 24 hours. Cells were cultured with […] of αAED, βAED, βAET, and vehicle. After culture, the cells were viewed in situ under 20× magnification using a reverse image microscope.

human U87 glioma cells = settings: Example 1, FIG. 1; 500 μm, 3 days, compared to controls
Experimental: (§6) αAED, βAED, αAET, and βAET, are commercially available. Unless otherwise indicated, all steroids were dissolved in DMSO:ETHOL (1:1 v/v). Stock solutions were refrigerated and brought to room temperature before use. For testing, stock solutions were diluted in media immediately before use.
(§7) The rat F98 cell line was obtained from the American Type Culture Collection (ATCC No. CRL-2397). These cells are tumorgenic and have biological characteristics that closely resemble those of human glioblastoma. The F98 cells are weakly immunogenic. […] The T9 cell line is tumorgenic and immunogenic. The human U-87 cell line was obtained from American Type Culture Collection (ATCC No. HTB-14). These cells are tumorgenic and are derived from malignant gliomas. The human T98 cell line was obtained from the American Type Culture Collection (ATCC No. CRL-1690). These cells are derived from the brain of a subject diagnosed with glioblastoma multiforme.
(§8) Cells were grown in Complete Media (CM) consisting of Dulbecco's Modified Eagle Medium. Cells were initially seeded at a density of 1×10^4 cells per 0.2 ml in 96 well plates and grown at 37° C. During the growth phase, the media was not changed. Proliferation was measured by tritium uptake (as a measure of DNA synthesis). One microcurie (1 μC) was added to the cells and incubated overnight. The 96 well plate was then refrigerated and counted in a topcount cell plate harvester.
(§9) Rat F98 and T9 glioma cells and […] and U87 glioma cells were cultured in 96 well plates at a density of approximately 1×10^4 cells per well. Cells were treated with 500 μm of αAED or βAED or vehicle and cultured for 3 days. The cultures were pulsed with 3H-TdR for the last 15 hours.

rat T9 glioma cells = settings: Example 1, FIG. 1; 500 μm, 3 days, compared to controls
Experimental: as §6, §7, §8, §9

Raw 264.7 = settings: Huynh and Loria, J Leukoc Biol 1997; cited from earlier work
murine P388D1 = settings: Huynh and Loria, J Leukoc Biol 1997; cited from earlier work
[3] = tested on: human promyelocytic HL60 cells; settings: Huynh and Loria, J Leukoc Biol 1997; cited from earlier work
[4] = Example 5, FIG. 5, 400, 200, 100 and 50 μM
[5] = Example 4, FIG. 4, 400, 200, 100 and 50 μM

Row | Compound | cell growth / proliferation (3H-TdR incorporation) (rat F98 glioma cells [1]; [4]) | cell growth / proliferation (3H-TdR incorporation) (human T98 glioma cells; [5]) | morphology of apoptosis (cell shrinkage, rounding, vacuolization, partial detachment, lobulated appearance) (rat F98 glioma cells [2]) | morphological changes compared to vehicle treated cells (rat F98 glioma cells [2]) | cell growth / proliferation (3H-TdR incorporation) (rat F98 glioma cells [1]; Example 1, FIG. 1, 500 μm) | dose dependency of antiproliferative effect (rat F98 glioma cells [1]) | proliferation (rat F98 glioma cells [1]) | cell growth / proliferation (3H-TdR incorporation) (human U87 glioma cells) | cell growth / proliferation (3H-TdR incorporation) (rat T9 glioma cells) | cell growth / proliferation (3H-TdR incorporation) (human T98 glioma cells; Example 1, FIG. 1, 500 μm) | dose dependency of antiproliferative effect (human T98 glioma cells) | proliferation (human T98 glioma cells) | proliferation and apoptosis (Raw 264.7) | proliferation and apoptosis (murine P388D1) | proliferation and apoptosis [3]
1 | C[C@]12CC[C@H]3[C@@H]([C@H](O)C=C4C[C@@H](O)CC[C@@]43C)[C@@H]1CC[C@@H]2O [αAET, 5-androstene-3β-7α-17β-triol] | displayed significant effects on the proliferation | displayed significant effects on the proliferation | – | – | – | – | – | – | – | – | – | – | – | – | –
2 | C[C@]12CC[C@H]3[C@@H]([C@@H](O)C=C4C[C@@H](O)CC[C@@]43C)[C@@H]1CC[C@@H]2O [βAET, 5-androstene-3β-7β-17β-triol] | displayed significant effects on the proliferation | displayed significant effects on the proliferation | display morphology of apoptasis | significant morphological changes | – | – | – | – | – | – | – | – | – | – | –
3 | 5-androstene-3β-17α-diol [αAED] | significantly inhibited cell growth | significantly inhibited cell growth | display morphology of apoptasis | most drastic morphological changes | inhibited cell growth | dose dependent | inhibited the proliferation | inhibited cell growth | inhibited cell growth | inhibited cell growth | dose dependent | inhibited the proliferation | inhibits the proliferation and induces apoptosis | inhibits the proliferation and induces apoptosis | inhibits the proliferation and induces apoptosis
4 | 5-androstene-3β-17β-diol [βAED] | inhibited cell growth | inhibited cell growth | display morphology of apoptasis | significant morphological changes | inhibited cell growth | dose dependent | inhibited the proliferation | inhibited cell growth | inhibited cell growth | inhibited cell growth | dose dependent | inhibited the proliferation | – | – | –
